Data reported in article PMC12001203, “Binding‐Site Purification of Actives (B‐SPA) Enables Efficient Large‐Scale Progression of Fragment Hits by Combining Multi‐Step Array Synthesis With HT Crystallography” (Angewandte Chemie (International Ed. in English), 2025).

Molecular target: T1, Pleckstrin Homology Domain‐Interacting Protein, second bromodomain (PHIP(2)) (Homo sapiens, UniProt Q8WWQ0)
T1 construct: second bromodomain (PHIP(2))
Assay: grating-coupled interferometry (waveRAPID) Kd; crystal structure; AlphaScreen IC50
Type: binding

- Kd: 50 µM
Compound: O=C(Nc1nc2ccccc2o1)N1CCN(C(=O)c2ccco2)CC1 [PHIP-AM1-20, PHIP‐AM1‐20]
